{
  "source": "patent US10301282B2",
  "about": "“Polymorphic form X of nilotinib dihydrochloride hydrate” (Cipla Limited, priority 2015, dated 2019)",
  "key": {"[1]": {"test": "Intrinsic dissolution study in 0.1 N HCl", "type": "physicochemical", "conditions": "at 15 minutes time interval, conventional intrinsic dissolution assembly", "procedure": "Intrinsic dissolution studies were conducted on nilotinib dihydrochloride Form X and nilotinib monohydrochloride monohydrate in 0.1 N HCl using a conventional intrinsic dissolution assembly."}, "Hygroscopicity": {"test": "Hygroscopicity", "type": "physicochemical"}, "[2]": {"conditions": "as described in U.S. Pat. No. 8,163,904; cited from earlier work"}, "[3]": {"conditions": "as described in U.S. Pat. No. 8,163,904; cited from earlier work", "remark": "listed apart in the source"}},
  "note": "Structures can show the parent of a compound that is named as a salt. Where two headings read alike, the source gives them in different places.",
  "data": [
    {"smiles": "Cc1cn(-c2cc(NC(=O)c3ccc(C)c(Nc4nccc(-c5cccnc5)n4)c3)cc(C(F)(F)F)c2)cn1", "note": "[nilotinib dihydrochloride Form X, nilotinib dihydrochloride hydrate]", "values": [
      {"measurement": "release (intrinsic dissolution)", "setting": "[1]; dihydrochloride hydrate", "result": 109, "unit": "%"},
      {"measurement": "hygroscopicity", "setting": "Hygroscopicity", "result": "substantially non-hygroscopic"}
    ]},
    {"smiles": "Cc1cn(-c2cc(NC(=O)c3ccc(C)c(Nc4nccc(-c5cccnc5)n4)c3)cc(C(F)(F)F)c2)cn1", "note": "[nilotinib monohydrochloride monohydrate]", "values": [
      {"measurement": "release (intrinsic dissolution)", "setting": "[1]; monohydrochloride monohydrate", "result": 114, "unit": "%"}
    ]},
    {"smiles": "Cc1cn(-c2cc(NC(=O)c3ccc(C)c(Nc4nccc(-c5cccnc5)n4)c3)cc(C(F)(F)F)c2)cn1", "note": "[Form B, nilotinib hydrochloride monohydrate]", "values": [
      {"measurement": "solubility in water", "setting": "[2]", "result": "very slightly soluble in water"},
      {"measurement": "hygroscopicity", "setting": "[3]", "result": "hygroscopic"}
    ]}
  ]
}
